Earlier results in patent US20070218155A1, “Methods and compositions for treating dyslipidaemia” (priority 2004, published 2007).

What was measured:
[1] = literature statement; cited from earlier work
HMG CoA reductase = target: T1, HMG CoA reductase (Homo sapiens, UniProt P04035); settings: HepG2 cells; comparison value; cited from earlier work
T1 construct: host or cells: HepG2
T1 sequence (P04035 1-888): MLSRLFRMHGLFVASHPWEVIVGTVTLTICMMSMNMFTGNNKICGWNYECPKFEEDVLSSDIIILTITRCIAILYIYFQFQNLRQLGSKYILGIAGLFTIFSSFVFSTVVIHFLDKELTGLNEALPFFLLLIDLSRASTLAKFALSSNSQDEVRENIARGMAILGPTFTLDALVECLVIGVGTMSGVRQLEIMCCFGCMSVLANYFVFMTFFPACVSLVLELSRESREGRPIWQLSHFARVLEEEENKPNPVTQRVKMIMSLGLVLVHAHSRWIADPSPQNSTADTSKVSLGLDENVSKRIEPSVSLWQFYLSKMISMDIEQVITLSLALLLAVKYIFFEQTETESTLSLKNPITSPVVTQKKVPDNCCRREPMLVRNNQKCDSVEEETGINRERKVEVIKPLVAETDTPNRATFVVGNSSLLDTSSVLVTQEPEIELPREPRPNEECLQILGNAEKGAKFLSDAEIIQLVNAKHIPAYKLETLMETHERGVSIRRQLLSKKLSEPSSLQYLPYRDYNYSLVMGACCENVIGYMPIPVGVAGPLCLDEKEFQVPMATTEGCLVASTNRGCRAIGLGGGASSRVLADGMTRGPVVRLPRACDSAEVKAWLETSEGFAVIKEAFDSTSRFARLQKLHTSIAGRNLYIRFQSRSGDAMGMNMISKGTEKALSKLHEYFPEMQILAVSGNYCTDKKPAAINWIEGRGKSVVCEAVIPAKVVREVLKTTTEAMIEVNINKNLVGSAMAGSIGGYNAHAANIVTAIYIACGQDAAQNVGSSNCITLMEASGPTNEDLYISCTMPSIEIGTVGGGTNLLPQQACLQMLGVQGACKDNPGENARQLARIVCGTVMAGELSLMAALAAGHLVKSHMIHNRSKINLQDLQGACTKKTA

[2] = test system: DGAT activity in intact Raji cells; settings: Tabata et al.; cited from earlier work

In the case of `CC(C)=CCc1c(O)cc(O)c2c1O[C@H](c1ccc(O)cc1)CC2=O` [8-prenylnaringenin, 8-prenylnaringenin], the estrogenic activity [1] is given as “potent estrogenic activity”.
In the case of `CC(C)c1c(C(=O)Nc2ccccc2)c(-c2ccccc2)c(-c2ccc(F)cc2)n1CC[C@@H](O)C[C@@H](O)CC(=O)O` [Atorvastatin], the “inhibition of HMG CoA reductase” value (HMG CoA reductase) is given as “about 96%”.
In the case of `COc1cc(O)c(CC=C(C)C)c(O)c1C(=O)/C=C/c1ccc(O)cc1` [xanthohumol], the “inhibition of triacylglycerol formation / DGAT activity in intact Raji cells” value [2] is listed as “inhibited DGAT activity specifically in human cells” and the estrogenic activity [1] is listed as “does not exhibit estrogenic activity”.
